Values quoted from earlier work, collected in patent US10937641B2, “MALDI mass spectrometry method” (BiosparQ B.V., priority 2017, dated 2021).
In brackets after ≈: the same amount, converted by molar mass.

Settings: solubility defined at room temperature as intrinsic solubility

N#CC(=Cc1ccc(O)cc1)C(=O)O [αCHCA, α-cyano-4-hydroxycinnamic acid]
solubility in water: 6000 µg/mL (≈ 31.7 mM)
